Assays:
U138 glioblastoma cells = experiment: MTT cell viability assay, U138; type: cell-based; settings: Homo sapiens, U138, 72 h, mean ± SEM, read-out: IC50 (metabolic activity)
Experimental: (§1) Cells harvested from sub-confluent monolayers were seeded at 15,000 cells per mL in a 96-well microtiter plate (Cambridge Technology, Labège, France) and cultured for 24 h under standard conditions. Standard medium was then replaced by fresh medium containing no drugs or compounds at different concentrations. The surviving cells were quantified after 72 h by the MTT assay, according to the manufacturer’s instructions. Briefly, 20 µL of 3-(4,5-diMethylThiazol-2-yl)-2,5diphenyl Tetrazolium bromide (MTT) solution at 5 mg.mL^−1 was added to cells for 3 h at 37 °C. The supernatant was discarded and replaced by 100 µL of dimethyl sulfoxide to dissolve formazan crystals. The absorbance was then read at 600 nm by spectrophotometry. For all concentrations of a given compound, cell viability was expressed as the percentage of the ratio between the mean absorbance of treated cells and the mean absorbance of untreated cells. Three independent experiments were performed, and the data were expressed as percentage of survival (using the untreated cells as 100%) and subjected to statistical analysis (n = 3). The IC50 was calculated using the Chou and Talalay method.

U87 shCTRL cells [1] = experiment: MTT cell viability assay, U87 shCTRL (expressing Tau); type: cell-based, human; settings: for IC50: Homo sapiens, U87 shCTRL, 72 h, MTT, mean ± SEM, read-out: IC50 (metabolic activity)
Experimental: (§2) All cell lines were purchased from ATCC, Gaithersburg, MD, USA. Cells from human glioblastoma (clones U87 wt, HTB-14; U118, HTB-15; U251, HTB-12; U138, HTB-16), neuroblastoma (clone SK-N-SH, HTB-11), and colorectal adenocarcinoma (clone Caco-2, HTB-37) were routinely grown at 37 °C in a humidified atmosphere containing 5% CO2. Cells were maintained by regular passages in complete media supplemented with 10% FBS, 2mM of L-glutamine, 100 U/mL of penicillin, and 50 U/mL of streptomycin (Invitrogen, Paris, France). For U87 wt, U251, U138, and SK-N-SH cells, the medium consisted of EMEM (Lonza, Levallois Perret, France). U118 and Caco-2 lines were maintained in DMEM. The U87 wt-derived lines, U87 shCTRL, and U87 shTau2 cells were continuously maintained in complete EMEM medium supplemented with 0.4 µg/mL of puromycin. The shRNA sequences and the protocol of clone selection and Tau downregulation were previously described in [20]. For Tau expression rescue, the U87 shCTRL and U87 shTau cells were seeded two days prior to experiments at 4.10^5 cells per 60 mm dish in 6 mL of complete medium. Cells were transfected using LipofectAmine 2000 according to Invitrogen instructions and 8 µg EGFP-free plasmid constructs (for U87 shCTRL) and EGFP-hTau40 plasmid constructs (for U87 shTau) were used in total. One day prior to experiments, all cells were plated in a 96-well microtiter plate to prepare for viability assays. Cells were free from mycoplasma as determined by mycoalert tests (Lonza).
as §1

U87 shTau cells = experiment: MTT cell viability assay, U87 shTau (Tau-depleted); type: cell-based; settings: Homo sapiens, 72 h, mean ± SEM, read-out: IC50 (metabolic activity)
Experimental: as §2, §1

U87 shCTRL cells [2] = experiment: Microtubule network analysis (alpha-tubulin immunofluorescence), U87 shCTRL; type: cell-based, human
Experimental: Cells were then fixed in 4% formaldehyde (in PBS pH 7.4) for 20 min at RT, permeabilized with PBS-Triton X-100 0.5% for 10 min at RT. Immunostaining was carried out overnight at 4 °C with a primary anti-citrate synthase antibody (dilution 1:400 in PBS-BSA 3%; SC390693; SantaCruz Biotechnologies, Heidelberg, Germany). The following day, the cells were washed then incubated with anti-mouse secondary antibody (dilution 1:800 in PBS-BSA 3%; A-11029; Invitrogen) and TRITC-phalloidin (dilution 1:2500 in PBS-BSA 3%; P1951; Sigma-Aldrich, Saint-Quentin-Fallavier, France) for 1 h at RT in the dark. For the microtubule network, the same protocol for mitochondria labeling was carried out by replacing with primary anti-α-tubulin antibody (dilution 1:400 in PBS-BSA 1% from a 1 mg/mL solution; monoclonal antibody, clone DM1A, Sigma-Aldrich, Saint-Quentin-Fallavier, France). Next, cells were washed in PBS and cover glasses were mounted with a drop of ProLong® anti-fade solution (Invitrogen). Mitochondria and cytoskeletons were imaged using a confocal laser scanning microscope (CLSM) Leica SP5 with a Leica inverted microscope, equipped with a Plan-Apochromat 63×oil immersion objective (NA = 1.4). Each image was recorded with the CLSM’s spectral mode selecting specific domains of the emission spectrum. The Alexafluor488 and FITC fluorophores were excited at 488 nm with an argon laser, and fluorescence emission was collected between 496 nm and 535 nm. The TRITC fluorophore was excited at 543 nm with a helium–neon laser, and fluorescence was collected between 560 and 620 nm. The public-domain Fiji v1.54f software was used for image analysis.
The analyses of mitochondria and microtubule networks were performed using, respectively, the ‘Mitochondria analyzer’ plugin for Fiji v1.54f software and the method described in our earlier work. Briefly, a series of images were transferred to the software and corrected for background fluorescence intensity contribution. Next, the surface of 50 single cells was measured by considering the cell shape as the boundary of labelling of actin or α-tubulin cytoskeletons (respectively for measurement on mitochondria or microtubules). Then, the mitochondria elongation and mean branch junction per mitochondria parameters, and the surface of the microtubule network, were measured by performing systematically the Otsu method to reduce all gray-level images to binary images. Note that the Otsu plugin in ImageJ is an algorithm which searches for the threshold minimizing the intra-class variance of pixel intensities, defined as a weighted sum of variances of the two classes; the local set is a circular region of interest, and the central pixel is tested against the Otsu threshold found for that region. Moreover, the ratios of microtubules on cell surfaces were calculated as percentages.

[3] = 1.25 µM, 24 h, untreated 39 ± 5%

Nc1nc2ccc3oc(-c4cccc(Oc5ccccc5)c4)cc(=O)c3c2s1 [Compound 2, 2-amino-7-(3-phenoxyphenyl)-9H-chromeno [6,5-d]thiazol-9-one]
IC50 (U138 glioblastoma cells): 2.3 ± 1 µM
IC50 (U87 shCTRL cells [1]): 1.4 ± 0.5 µM
activity against U87 shCTRL cells compared to U87 shTau cells (U87 shCTRL cells [1]; ratio of IC50 values): 3 times
IC50 (U87 shTau cells): 4.7 ± 0.3 µM
ratio of microtubule network surface to total cell surface (U87 shCTRL cells [2]; [3]): 42.2 ± 6.7%
ratio of microtubule network surface to total cell surface (U87 shCTRL cells [2]; 5 µM, 8 h (maximal)): 44.1 ± 3.8%
ratio of microtubule network surface to total cell surface (U87 shCTRL cells [2]; 20 µM, 24 h, untreated 39 ± 5%): 43.2 ± 9.3%

Nc1nc2ccc3oc(C(=O)O)cc(=O)c3c2s1 [Compound 5]
IC50 (U138 glioblastoma cells): > 100 µM
IC50 (U87 shCTRL cells [1]): > 100 µM
IC50 (U87 shTau cells): > 100 µM
ratio of microtubule network surface to total cell surface (U87 shCTRL cells [2]; [3]): no effect
ratio of microtubule network surface to total cell surface (U87 shCTRL cells [2]; 5 µM, 8 h (maximal)): no effect on microtubule networks
ratio of microtubule network surface to total cell surface (U87 shCTRL cells [2]; 20 µM, 24 h, untreated 39 ± 5%): no effect
